Reference: patent publication US20050107423A1, “Quinolone antibacterial agents” (priority 2003, published 2005)
Converted amounts (≈) assume the structure as drawn.

Legend:
Assay in all cases: Antibacterial assay, microtitration MIC (Test A)
Type in all cases: cell-based
[1] = tested on: S. pneumo SV-1; settings: Gram Positive Bacteria; strain SV-1; read-out: Minimum Inhibitory Concentrations S. pneumo SV-1
Procedure, shortened: (§1)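 Read-out is the MIC, obtained through conventional microtitration testing of Gram-positive and Gram-negative organisms.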

[2] = tested on: S pyogenes C203; settings: Gram Positive Bacteria; strain C203; read-out: Minimum Inhibitory Concentrations S pyogenes C203
Procedure, shortened: as §1

[3] = tested on: S. aureus UC-76; settings: Staphylococcus aureus, UC76, Gram Positive Bacteria; strain UC-76; read-out: Minimum Inhibitory Concentrations S. aureus UC-76
Procedure, shortened: as §1

[4] = tested on: E. faecalis MGH-2; settings: Enterococcus faecalis, MGH2, Gram Positive Bacteria; strain MGH-2; read-out: Minimum Inhibitory Concentrations E. faecalis MGH-2
Procedure, shortened: as §1

| MIC [1] | MIC [2] | MIC [3] | MIC [4] | SMILES |
| --- | --- | --- | --- | --- |
| 0.03 µg/mL (≈ 0.0742 µM) | 0.06 µg/mL (≈ 0.148 µM) | 4 ng/mL (≈ 0.00989 µM) | 0.125 µg/mL (≈ 0.309 µM) | COC[C@H]1CN(c2c(F)cc3c(=O)c(C(=O)O)cn(C4CC4)c3c2C)C[C@H]1CO [drawing 406] |
| 0.06 µg/mL (≈ 0.154 µM) | 0.06 µg/mL (≈ 0.154 µM) | 4 ng/mL (≈ 0.0102 µM) | 0.06 µg/mL (≈ 0.154 µM) | Cc1c(N2C[C@@H](CO)[C@@H](CO)C2)c(F)cc2c(=O)c(C(=O)O)cn(C3CC3)c12 [drawing 405] |
| 0.125 µg/mL (≈ 0.297 µM) | 0.25 µg/mL (≈ 0.593 µM) | 8 ng/mL (≈ 0.019 µM) | 0.25 µg/mL (≈ 0.593 µM) | COc1c(N2C[C@@H](CO)[C@@H](CO)C2)c(F)c(N)c2c(=O)c(C(=O)O)cn(C3CC3)c12 [drawing 400] |
| 0.06 µg/mL (≈ 0.144 µM) | 0.25 µg/mL (≈ 0.6 µM) | 8 ng/mL (≈ 0.0192 µM) | 0.125 µg/mL (≈ 0.3 µM) | Cc1c(N2C[C@@H]3CC[C@@](O)(CO)[C@@H]3C2)c(F)cc2c(=O)c(C(=O)O)cn(C3CC3)c12 [drawing 461] |
| 0.06 µg/mL (≈ 0.119 µM) | 0.125 µg/mL (≈ 0.249 µM) | 30 ng/mL (≈ 0.0597 µM) | 0.5 µg/mL (≈ 0.995 µM) | CCC(=O)OC[C@@H]1CN(c2c(F)cc3c(=O)c(C(=O)O)cn(C4CC4)c3c2C)C[C@@H]1COC(=O)CC [drawing 412] |
| 0.06 µg/mL (≈ 0.146 µM) | 0.125 µg/mL (≈ 0.305 µM) | 4 ng/mL (≈ 0.00975 µM) | 0.06 µg/mL (≈ 0.146 µM) | Cc1c(N2CCC(C(O)C(F)F)C2)c(F)cc2c(=O)c(C(=O)O)cn(C3CC3)c12 (centres unmarked) [drawing 343] |
| 0.125 µg/mL (≈ 0.266 µM) | 0.125 µg/mL (≈ 0.266 µM) | 8 ng/mL (≈ 0.017 µM) | 0.125 µg/mL (≈ 0.266 µM) | O=C(O)c1cn(C2CC2)c2c(OC(F)F)c(N3C[C@@H](CCO)[C@@H](CCO)C3)c(F)cc2c1=O [drawing 416] |
| 0.03 µg/mL (≈ 0.0772 µM) | 0.06 µg/mL (≈ 0.154 µM) | 2 ng/mL (≈ 0.00515 µM) | 0.06 µg/mL (≈ 0.154 µM) | Cc1c(N2CC(CO)C(C)(C)C2)c(F)cc2c(=O)c(C(=O)O)cn(C3CC3)c12 (centres unmarked) [drawing 427] |
| 0.06 µg/mL (≈ 0.126 µM) | 0.125 µg/mL (≈ 0.263 µM) | 15 ng/mL (≈ 0.0316 µM) | 0.125 µg/mL (≈ 0.263 µM) | CC(=O)OC[C@@H]1CN(c2c(F)cc3c(=O)c(C(=O)O)cn(C4CC4)c3c2C)C[C@@H]1COC(C)=O [drawing 411] |
| 0.06 µg/mL (≈ 0.148 µM) | 0.06 µg/mL (≈ 0.148 µM) | 2 ng/mL (≈ 0.00492 µM) | 0.06 µg/mL (≈ 0.148 µM) | COc1c(N2C[C@@H](CO)[C@@H](CO)C2)c(F)cc2c(=O)c(C(=O)O)cn(C3CC3)c12 [drawing 403] |
| 0.25 µg/mL (≈ 0.55 µM) | 0.5 µg/mL (≈ 1.1 µM) | 8 ng/mL (≈ 0.0176 µM) | 0.25 µg/mL (≈ 0.55 µM) | O=C(O)c1cn(C2CC2)c2c(OC(F)F)c(N3CC4CC(O)C(O)C4C3)c(F)cc2c1=O (centres unmarked) [drawing 459] |
| 0.06 µg/mL (≈ 0.138 µM) | 0.06 µg/mL (≈ 0.138 µM) | 4 ng/mL (≈ 0.00921 µM) | 0.125 µg/mL (≈ 0.288 µM) | COc1c(N2C[C@@H](CCO)[C@@H](CCO)C2)c(F)cc2c(=O)c(C(=O)O)cn(C3CC3)c12 [drawing 415] |
| 0.06 µg/mL (≈ 0.155 µM) | 0.06 µg/mL (≈ 0.155 µM) | 4 ng/mL (≈ 0.0104 µM) | 0.06 µg/mL (≈ 0.155 µM) | Cc1c(N2CC(CO)C3(CC3)C2)c(F)cc2c(=O)c(C(=O)O)cn(C3CC3)c12 (centres unmarked) [drawing 428] |
| 0.125 µg/mL (≈ 0.236 µM) | 0.25 µg/mL (≈ 0.471 µM) | 1000 ng/mL (≈ 1.88 µM) | 4 µg/mL (≈ 7.54 µM) | Cc1c(N2C[C@@H](COC(=O)C(C)C)[C@@H](COC(=O)C(C)C)C2)c(F)cc2c(=O)c(C(=O)O)cn(C3CC3)c12 [drawing 413] |
| 0.06 µg/mL (≈ 0.149 µM) | 0.125 µg/mL (≈ 0.311 µM) | 8 ng/mL (≈ 0.0199 µM) | 0.06 µg/mL (≈ 0.149 µM) | Cc1c(N2CC(C(C)O)C(C)(C)C2)c(F)cc2c(=O)c(C(=O)O)cn(C3CC3)c12 (centres unmarked) [drawing 432] |
| 0.03 µg/mL (≈ 0.0776 µM) | 0.06 µg/mL (≈ 0.155 µM) | 4 ng/mL (≈ 0.0104 µM) | 0.06 µg/mL (≈ 0.155 µM) | Cc1c(N2C[C@@H]3CC[C@@H](O)[C@@H]3C2)c(F)cc2c(=O)c(C(=O)O)cn(C3CC3)c12 [drawing 453] |
| 0.25 µg/mL (≈ 0.578 µM) | 0.5 µg/mL (≈ 1.16 µM) | 15 ng/mL (≈ 0.0347 µM) | 0.25 µg/mL (≈ 0.578 µM) | COc1c(N2C[C@@H]3CC[C@@](O)(CO)[C@@H]3C2)c(F)cc2c(=O)c(C(=O)O)cn(C3CC3)c12 [drawing 460] |
| 0.03 µg/mL (≈ 0.0738 µM) | 0.03 µg/mL (≈ 0.0738 µM) | 2 ng/mL (≈ 0.00492 µM) | 0.03 µg/mL (≈ 0.0738 µM) | COc1c(N2CCC(C(O)CO)C2)c(F)cc2c(=O)c(C(=O)O)cn(C3CC3)c12 (centres unmarked) [drawing 355] |
| 0.06 µg/mL (≈ 0.146 µM) | 0.25 µg/mL (≈ 0.609 µM) | 8 ng/mL (≈ 0.0195 µM) | 0.125 µg/mL (≈ 0.305 µM) | Cc1c(N2CCC(C(F)(F)CO)C2)c(F)cc2c(=O)c(C(=O)O)cn(C3CC3)c12 (centres unmarked) [drawing 368] |
| 0.25 µg/mL (≈ 0.56 µM) | 1 µg/mL (≈ 2.24 µM) | 150 ng/mL (≈ 0.336 µM) | 0.5 µg/mL (≈ 1.12 µM) | COc1c(N2C[C@]3(CO)CCC[C@]3(CO)C2)c(F)cc2c(=O)c(C(=O)O)cn(C3CC3)c12 [drawing 462] |
